Measurements reported in PubChem BioAssay (NCI).
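Method: 48-hour compound exposure of cells in 96-well plates, five concentrations, linear interpolation of endpoints. GI50 marks 50% less growth. TGI: total growth inhibition.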

Legend:
Assay in all cases: NCI tumour cell line growth inhibition, 48 h
[1] = test system: PC-3 prostate
[2] = test system: HCT-15 colon
[3] = test system: ACHN renal
[4] = test system: COLO 205 colon
[5] = test system: RPMI-8226 leukemia
[6] = test system: DU-145 prostate
[7] = test system: OVCAR-4 ovarian
[8] = test system: SN12C renal
[9] = test system: M14 melanoma
[10] = test system: A549 NSCLC
[11] = test system: 786-0 renal
[12] = test system: BT-549 breast
[13] = test system: NCI/ADR-RES ovarian
[14] = test system: OVCAR-8 ovarian
[15] = test system: SF-295 CNS
[16] = test system: MALME-3M melanoma
[17] = test system: IGROV1 ovarian
[18] = test system: HCC-2998 colon
[19] = test system: SNB-75 CNS
[20] = test system: EKVX NSCLC
[21] = test system: HOP-92 NSCLC
[22] = test system: MCF7 breast
[23] = test system: LOX IMVI melanoma
[24] = test system: K-562 leukemia
[25] = test system: SK-MEL-28 melanoma
[26] = test system: U251 CNS
[27] = test system: CCRF-CEM leukemia
[28] = test system: OVCAR-3 ovarian
[29] = test system: SK-MEL-5 melanoma
[30] = test system: HS 578T breast
[31] = test system: OVCAR-5 ovarian
[32] = test system: SK-MEL-2 melanoma
[33] = test system: T-47D breast
[34] = test system: KM12 colon
[35] = test system: MOLT-4 leukemia
[36] = test system: SF-539 CNS
[37] = test system: NCI-H226 lung
[38] = test system: HOP-62 NSCLC
[39] = test system: MDA-MB-231 breast
[40] = test system: RXF 393 renal
[41] = test system: NCI-H522 lung
[42] = test system: SK-OV-3 ovarian
[43] = test system: HT29 colon
[44] = test system: SNB-19 CNS
[45] = test system: SF-268 CNS
[46] = test system: TK-10 renal
[47] = test system: CAKI-1 renal
[48] = test system: UACC-257 melanoma
[49] = test system: UACC-62 melanoma
[50] = test system: SW-620 colon
[51] = test system: HCT-116 colon
[52] = test system: NCI-H460 lung
[53] = test system: MDA-MB-435
[54] = test system: UO-31 renal
[55] = test system: NCI-H23 lung
[56] = test system: SR leukemia
[57] = test system: HL-60(TB) leukemia

O=C1c2ccn(CCCNC(CO)(CO)CO)c2C(=O)c2c1c(O)c1ccccc1c2O
GI50 [1]: 14.6 µM
TGI [1]: 35.8 µM
GI50 [2]: 14.2 µM
TGI [2]: 28.6 µM
GI50 [3]: 13.6 µM
TGI [3]: 28.2 µM
GI50 [4]: 13.2 µM
TGI [4]: 29.4 µM
GI50 [5]: 22.3 µM
TGI [5]: > 69.7 µM
GI50 [6]: 11.5 µM
TGI [6]: 25 µM
GI50 [7]: 29.2 µM
TGI [7]: > 51.2 µM
GI50 [8]: 3.16 µM
TGI [8]: 17.9 µM
GI50 [9]: 14.1 µM
TGI [9]: 30.1 µM
GI50 [10]: 16.9 µM
TGI [10]: 36.8 µM
GI50 [11]: 7.94 µM
TGI [11]: 26.9 µM
GI50 [12]: 43.9 µM
TGI [12]: > 90.2 µM
GI50 [13]: 10.7 µM
TGI [13]: 26.7 µM
GI50 [14]: 15 µM
TGI [14]: 36.9 µM
GI50 [15]: 15 µM
TGI [15]: > 49.8 µM
GI50 [16]: 22.7 µM
TGI [16]: 74.3 µM
GI50 [17]: 9.27 µM
TGI [17]: 56.8 µM
GI50 [18]: 2.52 µM
TGI [18]: 8.2 µM
GI50 [19]: > 75.2 µM
TGI [19]: > 100 µM
GI50 [20]: 49.7 µM
TGI [20]: > 100 µM
GI50 [21]: 40 µM
TGI [21]: > 86.9 µM
GI50 [22]: 13 µM
TGI [22]: 33 µM
GI50 [23]: 13.1 µM
TGI [23]: 29.7 µM
GI50 [24]: 9.36 µM
TGI [24]: 90.1 µM
GI50 [25]: 51.3 µM
TGI [25]: > 100 µM
GI50 [26]: 15.2 µM
TGI [26]: 36.6 µM
GI50 [27]: 10 µM
TGI [27]: 44 µM
GI50 [28]: 6.71 µM
TGI [28]: 21.6 µM
TGI [29]: 0.588 µM
GI50 [30]: 1.22 µM
TGI [31]: 13.5 µM
GI50 [32]: 23.1 µM
TGI [32]: 68.8 µM
GI50 [33]: 16.4 µM
TGI [33]: 50.9 µM
GI50 [34]: 11.1 µM
TGI [34]: 25.7 µM
GI50 [35]: 2.54 µM
TGI [35]: > 37.2 µM
GI50 [36]: 11.4 µM
TGI [36]: 25.6 µM
GI50 [37]: 60.7 µM
TGI [37]: > 100 µM
GI50 [38]: 2.43 µM
TGI [38]: 17.9 µM
GI50 [39]: 8.39 µM
TGI [39]: 25.2 µM
GI50 [40]: 24.2 µM
TGI [40]: > 61 µM
GI50 [41]: 12.9 µM
TGI [41]: 46.6 µM
GI50 [42]: 30.8 µM
TGI [42]: 96.6 µM
GI50 [43]: 15.4 µM
TGI [43]: > 46.3 µM
GI50 [44]: 36.3 µM
TGI [44]: > 100 µM
GI50 [45]: 24.2 µM
TGI [45]: > 100 µM
GI50 [46]: 1.32 µM
TGI [46]: 22.6 µM
GI50 [47]: 16.4 µM
TGI [47]: 47.1 µM
GI50 [48]: 43.9 µM
TGI [48]: > 78.1 µM
GI50 [49]: 24.6 µM
TGI [49]: > 61.3 µM
GI50 [50]: 4.09 µM
TGI [50]: 18.6 µM
GI50 [51]: 1.9 µM
TGI [51]: 13.9 µM
GI50 [52]: 10.2 µM
TGI [52]: 29.3 µM
GI50 [53]: 34.1 µM
TGI [53]: > 65.4 µM
GI50 [54]: 13.4 µM
TGI [54]: 30.3 µM
GI50 [55]: 15.2 µM
TGI [55]: 30.5 µM

S=c1[nH]n2c(COc3ccc(Cl)cc3)nnc2s1
TGI [1]: > 100 µM
TGI [2]: > 100 µM
TGI [3]: > 100 µM
TGI [4]: > 100 µM
TGI [5]: > 100 µM
TGI [6]: > 100 µM
TGI [7]: > 100 µM
TGI [8]: > 100 µM
TGI [9]: > 100 µM
TGI [10]: > 100 µM
TGI [11]: > 100 µM
TGI [13]: > 100 µM
TGI [14]: > 100 µM
TGI [15]: > 100 µM
TGI [16]: > 100 µM
TGI [17]: > 100 µM
TGI [18]: > 100 µM
TGI [19]: > 100 µM
TGI [20]: > 100 µM
TGI [21]: > 100 µM
TGI [22]: > 100 µM
TGI [24]: > 100 µM
TGI [56]: > 100 µM
TGI [25]: > 100 µM
TGI [26]: > 100 µM
TGI [28]: > 100 µM
TGI [29]: > 100 µM
TGI [31]: > 100 µM
TGI [32]: > 100 µM
TGI [33]: > 100 µM
TGI [34]: > 100 µM
TGI [35]: > 100 µM
TGI [36]: > 100 µM
TGI [37]: > 100 µM
TGI [38]: > 100 µM
TGI [39]: > 100 µM
TGI [40]: > 100 µM
TGI [41]: > 100 µM
TGI [57]: > 100 µM
TGI [42]: > 100 µM
TGI [43]: > 100 µM
TGI [44]: > 100 µM
TGI [45]: > 100 µM
TGI [46]: > 100 µM
TGI [47]: > 100 µM
TGI [48]: > 100 µM
TGI [49]: > 100 µM
TGI [50]: > 100 µM
TGI [51]: > 100 µM
TGI [52]: > 100 µM
TGI [53]: > 100 µM
TGI [54]: > 100 µM
TGI [55]: > 100 µM
